Measured values taken from US10829516B2 (London Health Sciences Centre Research Inc., priority 2015, dated 2020).
pEC50, pIC50: −log10 of the molar value. Non-standard residues stand in square brackets, D forms with d. Residues, ends and D or L forms follow the SMILES beside them. *: point of attachment. 1Nal = N[C@@H](Cc1cccc2ccccc12)C(=O)O; d2Nal = N[C@H](Cc1ccc2ccccc2c1)C(=O)O; Benzoyl(4-F) = O=C(c1ccc(F)cc1)*; d2Thi = N[C@H](Cc1cccs1)C(=O)O; Propanoyl(2-F) = CC(F)C(=O)*; Dap = NC[C@H](N)C(=O)O; Aib = CC(C)(N)C(=O)O; Inp = O=C(O)C1CCNCC1

Experiments:
GHS-R1a = target: T1, GHS-R1a (Homo sapiens, UniProt Q92847); assay: Receptor-ligand competitive binding assay, HEK293/GHS-R1a cells with [125I]ghrelin as radioligand
T1 construct: expressed in transfected cells; host or cells: HEK293
Description: Receptor-Ligand Binding Assay
Competitive binding assays were run at the Lawson Health Research Institute at St. Joseph's Health Care in London. […] To begin with, a fresh solution of binding buffer (50 ml) was made up by adding HEPES (0.3 g, 25 mM), MgCl2 (0.051 g, 5 mM), CaCl2 (7.4×10^−3 g, 1 mM), EDTA (0.015 g, 2.5 mM) and BSA (0.2 g, 0.4%) to distilled H2O. The resultant solution was mixed over gentle heat. The pH was then adjusted to 7.4 and the solution filtered. Two miniature complete protease inhibitor tablets were then added and the final buffer solution kept on ice.
After the buffer had been made, assay tubes were labelled and kept on ice during the setup. To assay tubes 1-21, 25-27 and 28-30 was added binding buffer (200 μl, 230 μl and 300 μl respectively). No buffer was added to tubes 22-24. An aliquot of frozen cells was thawed to room temperature, centrifuged (3000×g, 10 mins, room temperature) and the subsequent cell pellet re-suspended in binding buffer (2 ml) and placed on ice. Cells (50 μl) were then added to assay tubes 1-21 and 25-27. Cold peptide was then prepared. This was carried out by adding stock peptide (20 μl) to binding buffer (180 μl) to make a peptide solution of 10^−4M concentration. Binding buffer (180 μl) was then added to assay tubes labelled 10^−5 to 10^−11. A series of dilutions was then made in order to acquire 10^−5 to 10^−11M concentrations. Cold peptide (30 μl) was then added to the corresponding assay tubes in triplicate.
All assay tubes were then vortexed, capped and immediately agitated (550 rpm, 20 mins, 37° C.). After 20 minutes, tubes 1-21 and 25-27 were spun in a large centrifuge (2800 rpm, 2 mins, 4° C.). The solution in all of the tubes was then transferred to Eppendorf tubes (0.5 ml), further binding buffer added (200 μl), the solutions mixed by pipetting and transferred to 0.5 ml tubes. The tubes were then spun again (13 000×g, 5 mins, 4° C.) and placed on ice. The supernatant was removed and the cell pellet rinsed with ice-cold Tris-HCl (200 μl, 50 mM, pH 7.4) and the tubes mixed by inversion. Tubes were spun a final time (13,000×g, 5 mins, 4° C.), cooled on ice and supernatant removed. The tubes were then placed in 12×75 mm assay tubes and counted using a gamma counter (see protocol 3). The binding assay may be summarized as follows:
Competitive binding assays were run on the compounds of Table 2 as described in Example 1. The formulas of the compounds of Table 2 are illustrated in FIGS. 49 and 50.

GH release = conditions: Elias et al., Endocrinology 1995, read-out: EC50, reported half-maximal effective concentration; cited from earlier work
[1] = target: Human recombinant ghrelin receptor (Homo sapiens, UniProt Q92847); assay: Calcium flux dose-response assay (FLIPR TETRA, EMD Millipore GPCRProfiler); type: cell-based; conditions: for EC50 value compared with ghrelin: FIGS. 51 and 52, Example 3
Description: Another in vitro assay performed on the 4-fluorobenzoyl agonist [1-Nal^4,Lys^5(4-FB)]G-7039 and the [Lys^5(2-FP)]G-7039 agonist was a calcium flux dose-response assay. […] In this particular case, the biological effect of the peptidomimetic [1-Nal^4,Lys^5(4-FB)]G-7039 and the peptidomimetic [Lys^5(2-FP)]G-7039 is the release of intracellular calcium ions, a process which is detected by fluorescence using a […] instrument.
If the compound remained soluble 15 minutes after addition, samples were shipped to the EMD Millipore Corporation (15 Research Park Drive, St. Charles, Mo. 63304, USA). […] The agonist assay was performed for a total of 180 seconds. Each assay and assay concentration was performed in duplicate. The data acquired is presented in FIG. 51 ([1-Nal^4,Lys^5(4-FB)]G-7039) and FIG. 52 (Lys^5(2-FP)]G-7039).

Human recombinant ghrelin receptor, sequence (Q92847 whole entry): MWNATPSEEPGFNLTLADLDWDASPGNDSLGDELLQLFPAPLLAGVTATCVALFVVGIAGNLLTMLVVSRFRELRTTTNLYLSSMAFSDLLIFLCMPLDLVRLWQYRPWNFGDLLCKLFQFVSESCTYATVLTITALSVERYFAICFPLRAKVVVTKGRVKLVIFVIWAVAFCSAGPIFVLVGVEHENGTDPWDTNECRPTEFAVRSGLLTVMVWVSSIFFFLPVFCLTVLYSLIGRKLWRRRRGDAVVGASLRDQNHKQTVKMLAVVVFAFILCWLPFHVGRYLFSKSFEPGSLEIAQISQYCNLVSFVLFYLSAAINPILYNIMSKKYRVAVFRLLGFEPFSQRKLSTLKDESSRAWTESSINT
T1 sequence (Q92847 whole entry): as above

SMILES | pIC50 (GHS-R1a) | also measured
C[C@H](N)C(=O)N[C@@H](Cc1c[nH]cn1)C(=O)N[C@H](Cc1ccc2ccccc2c1)C(=O)N[C@@H](C)C(=O)N[C@@H](Cc1c[nH]c2ccccc12)C(=O)N[C@H](Cc1ccccc1)C(=O)N[C@@H](CCCCN)C(N)=O [GHRP-1, H-Ala-His-D-2-Nal-Ala-Trp-D-Phe-Lys-NH2, reference compound] (H-AH[d2Nal]AW[dF]K-NH2) | 6.74 | 
C[C@H](NC(=O)[C@@H](Cc1c[nH]c2ccccc12)NC(=O)[C@@H](N)Cc1c[nH]cn1)C(=O)N[C@@H](Cc1c[nH]c2ccccc12)C(=O)N[C@H](Cc1ccccc1)C(=O)N[C@@H](CNC(=O)c1ccc(F)cc1)C(N)=O [Dpr-4-FB-GHRP-6, H-His-D-Trp-Ala-Trp-D-Phe-Dpr(4-FB)-NH2] (H-H[dW]AW[dF][Dap](Benzoyl(4-F))-NH2) | 5.97 | 
NC(=O)[C@H](CCCCNC(=O)c1ccc(F)cc1)NC(=O)[C@@H](Cc1cccs1)NC(=O)[C@@H](Cc1ccc2ccccc2c1)NC(=O)[C@H](Cc1c[nH]cn1)NC(=O)C1CCNCC1 [Inp-Thi-4-FB-Ipamorelin, H-Inp-His-D-2-Nal-D-2-Thi-Lys(4-FB)-NH2] (H-[Inp]H[d2Nal][d2Thi]K(Benzoyl(4-F))-NH2) | 5.93 | 
CC(F)C(=O)NCCCC[C@H](NC(=O)[C@H](CO)NC(=O)[C@@H](Cc1ccc2ccccc2c1)NC(=O)[C@@H](Cc1ccc2ccccc2c1)NC(=O)C1CCNCC1)C(N)=O (stereo partly drawn) [TL-MF-2-2FP, H-Inp-(D-2-Nal)2-Ser-Lys(2-FP)-NH2] (H-[Inp][d2Nal][d2Nal]SK(Propanoyl(2-F))-NH2) | 7.22 | 
NCCCC[C@H](NC(=O)[C@H](Cc1ccccc1)NC(=O)[C@@H](Cc1ccc2ccccc2c1)NC(=O)[C@@H](Cc1ccc2ccccc2c1)NC(=O)C1CCNCC1)C(N)=O [Compound G-7039, H-Inp-D-2-Nal-D-2-Nal-Phe-Lys-NH2, reference compound] (H-[Inp][d2Nal][d2Nal]FK-NH2) | 8.28 | pEC50 (GH release): 9.74
NC(=O)[C@H](CCCCNC(=O)c1ccc(F)cc1)NC(=O)[C@@H](Cc1ccccc1)NC(=O)[C@@H](Cc1ccc2ccccc2c1)NC(=O)[C@H](Cc1c[nH]cn1)NC(=O)C1CCNCC1 [Inp-4-FB-Ipamorelin, H-Inp-His-D-2-Nal-D-Phe-Lys(4-FB)-NH2] (H-[Inp]H[d2Nal][dF]K(Benzoyl(4-F))-NH2) | 6.16 | 
CC(C)(N)C(=O)N[C@@H](Cc1c[nH]cn1)C(=O)N[C@H](Cc1ccc2ccccc2c1)C(=O)N[C@H](Cc1cccs1)C(=O)N[C@@H](CCCCNC(=O)c1ccc(F)cc1)C(N)=O [Thi-4-FB-Ipamorelin, H-Aib-His-D-2-Nal-D-2-Thi-Lys(4-FB)-NH2] (H-[Aib]H[d2Nal][d2Thi]K(Benzoyl(4-F))-NH2) | 6.79 | 
CC(C)(N)C(=O)N[C@@H](Cc1c[nH]cn1)C(=O)N[C@H](Cc1ccc2ccccc2c1)C(=O)N[C@H](Cc1ccccc1)C(=O)N[C@@H](CCCCN)C(N)=O [Ipamorelin, H-Aib-His-D-2-Nal-D-Phe-Lys-NH2, reference compound] (H-[Aib]H[d2Nal][dF]K-NH2) | 6.32 | 
NC(=O)[C@H](CCCCNC(=O)c1ccc(F)cc1)NC(=O)[C@@H](Cc1ccc2ccccc2c1)NC(=O)[C@@H](Cc1ccc2ccccc2c1)NC(=O)[C@H](Cc1c[nH]cn1)NC(=O)C1CCNCC1 [MMF-01-140-H, H-Inp-His-D-2-Nal-D-2-Nal-Lys(4-FB)-NH2] (H-[Inp]H[d2Nal][d2Nal]K(Benzoyl(4-F))-NH2) | 5.72 | 
CC(C)(N)C(=O)N[C@@H](Cc1c[nH]cn1)C(=O)N[C@H](Cc1ccc2ccccc2c1)C(=O)N[C@H](Cc1ccccc1)C(=O)N[C@@H](CCCCNC(=O)c1ccc(F)cc1)C(N)=O [4-FB-Ipamorelin, H-Aib-His-D-2-Nal-D-Phe-Lys(4-FB)-NH2] (H-[Aib]H[d2Nal][dF]K(Benzoyl(4-F))-NH2) | 6.77 | 
NC(=O)[C@H](CCCCNC(=O)c1ccc(F)cc1)NC(=O)[C@H](Cc1ccccc1)NC(=O)[C@@H](Cc1ccc2ccccc2c1)NC(=O)[C@@H](Cc1ccc2ccccc2c1)NC(=O)C1CCNCC1 [Compound 4-FB-G-7039, H-Inp-D-2-Nal-D-2-Nal-Phe-Lys(4-FB)-NH2] (H-[Inp][d2Nal][d2Nal]FK(Benzoyl(4-F))-NH2) | 6.62 | 
C[C@H](NC(=O)[C@@H](Cc1ccc2ccccc2c1)NC(=O)[C@@H](C)N)C(=O)N[C@@H](Cc1c[nH]c2ccccc12)C(=O)N[C@H](Cc1ccccc1)C(=O)N[C@@H](CCCCN)C(N)=O [GHRP-2, H-D-Ala-D-2-Nal-Ala-Trp-D-Phe-Lys-NH2, reference compound] (H-[dA][d2Nal]AW[dF]K-NH2) | 6.35 | 
CC(F)C(=O)NCCCC[C@H](NC(=O)[C@H](Cc1ccccc1)NC(=O)[C@@H](Cc1ccc2ccccc2c1)NC(=O)[C@@H](Cc1ccc2ccccc2c1)NC(=O)C1CCNCC1)C(N)=O (stereo partly drawn) [Compound 2-FP-G-7039, H-Inp-D-2-Nal-D-2-Nal-Phe-Lys(2-FP)-NH2] (H-[Inp][d2Nal][d2Nal]FK(Propanoyl(2-F))-NH2) |  | EC50 value compared with ghrelin [1]: below that of ghrelin
C[C@H](NC(=O)[C@@H](Cc1c[nH]c2ccccc12)NC(=O)[C@@H](N)Cc1c[nH]cn1)C(=O)N[C@@H](Cc1c[nH]c2ccccc12)C(=O)N[C@H](Cc1ccccc1)C(=O)N[C@@H](CCCCNC(=O)c1ccc(F)cc1)C(N)=O [Compound 4-FB-GHRP-6, H-His-D-Trp-Ala-Trp-D-Phe-Lys(4-FB)-NH2] (H-H[dW]AW[dF]K(Benzoyl(4-F))-NH2) | 6.42 | 
NC(=O)[C@H](CCCCNC(=O)c1ccc(F)cc1)NC(=O)[C@H](Cc1cccc2ccccc12)NC(=O)[C@@H](Cc1ccc2ccccc2c1)NC(=O)[C@@H](Cc1ccc2ccccc2c1)NC(=O)C1CCNCC1 [MMF-01-115-H, H-Inp-D-2-Nal-D-2-Nal-1-Nal-Lys(4-FB)-NH2] (H-[Inp][d2Nal][d2Nal][1Nal]K(Benzoyl(4-F))-NH2) | 7.16 | EC50 value compared with ghrelin [1]: below that of ghrelin; pEC50 ([1]; chem-1 cells, Fluo-8 NW dye, duplicate, read-out: EC50, intracellular Ca2+ release): 8.96
CC(F)C(=O)NCCCC[C@H](NC(=O)[C@H](CO)NC(=O)[C@H](Cc1ccccc1)NC(=O)[C@@H](Cc1ccc2ccccc2c1)NC(=O)[C@@H](Cc1ccc2ccccc2c1)NC(=O)C1CCNCC1)C(N)=O (stereo partly drawn) [TL-MF-4-2FP, H-Inp-(D-2-Nal)2-Phe-Ser-Lys(2-FP)-NH2] (H-[Inp][d2Nal][d2Nal]FSK(Propanoyl(2-F))-NH2) | 8.36 | 
CC(F)C(=O)NCCCC[C@H](NC(=O)[C@H](Cc1ccc(O)cc1)NC(=O)[C@@H](Cc1ccc2ccccc2c1)NC(=O)[C@@H](Cc1ccc2ccccc2c1)NC(=O)C1CCNCC1)C(N)=O (stereo partly drawn) [TL-MF-3-2FP, H-Inp-D-2-Nal-D-2-Nal-Tyr-Lys(2-FP)-NH2] (H-[Inp][d2Nal][d2Nal]YK(Propanoyl(2-F))-NH2) | 9.55 | 
NCCCC[C@H](NC(=O)[C@H](Cc1cccc2ccccc12)NC(=O)[C@@H](Cc1ccc2ccccc2c1)NC(=O)[C@@H](Cc1ccc2ccccc2c1)NC(=O)C1CCNCC1)C(N)=O [MMF-01-113-G, H-Inp-D-2-Nal-D-2-Nal-1-Nal-Lys-NH2] (H-[Inp][d2Nal][d2Nal][1Nal]K-NH2) | 7.56 | 
CC(F)C(=O)NCCCC[C@H](NC(=O)[C@H](Cc1ccccc1)NC(=O)[C@H](CO)NC(=O)[C@@H](Cc1ccc2ccccc2c1)NC(=O)[C@@H](Cc1ccc2ccccc2c1)NC(=O)C1CCNCC1)C(N)=O (stereo partly drawn) [TL-MF-5-2FP, H-Inp-(D-2-Nal)2-Ser-Phe-Lys(2-FP)-NH2] (H-[Inp][d2Nal][d2Nal]SFK(Propanoyl(2-F))-NH2) | 7.20 | 
